Experimental data as given in US20230399317A1, “COMPOUNDS AND METHODS FOR THE TREATMENT OF OCULAR DISORDERS” (Azura Ophthalmics Ltd., priority 2020, published 2023).

Tests used:
[1] = system: human T-cell line; conditions: in vitro; cited from earlier work
[2] = system: human peripheral blood mononuclear cells; conditions: in vitro; cited from earlier work
[3] = Rabbit Cornea Homogenate stability (esterase) assay, Method 2; format: in vitro ADME; conditions: for Esterase % Lifitegrast formation at 45 min: 37° C., Method 2 (DPBS pH 7.4); for API Formation rate (%/min): Method 2
Method: (§1) Determining Rabbit Cornea Homogenate stability of the test compounds was performed using HPLC-MS or UPLC-MS. The assay was performed at two concentrations of Rabbit Cornea Homogenate (0.15 mg/mL and 0.45 mg/mL total protein) so that any hydrolysis observed can be assigned as esterase dependent or not.
(§2) Three to five rabbit corneas (e.g. New Zealand Whites (NZW) or Dutch Belted (DB)) of approx. 50 mg each were sliced and scraped with a scalpel and tweezers until reduced to small (1-3 mm), thin pieces. These were transferred into a glass vial containing approximately 2 mL of cold DPBS pH 7.4 buffer.
(§3) Sample was cooled intermittently on ice and shear homogenized for 3 minutes, then centrifuged for 3 min at 13,000 g. The supernatant was pipetted off into a vial, and total protein concentration determined at 280 nm. Sample was stored at −78° C.
10 mM Compound DMSO stocks were diluted to 10 μM in a glass vial: 10 μL of 10 mM Compound stock was added to 9,990 μL DPBS, pH 7.4 buffer. Esterase homogenate was diluted to 300 ng/μL and 900 ng/μL in DPBS. […]
A heater shaker was set to 37° C. Into a suitable 96 well plate (Run Plate), 80 μL of 300 or 900 ng/μL esterase homogenate was pipetted into two rows as compounds were analyzed in duplicate (0 min, 2 min, 5 min, 10 min, 20 min and 45 min). The plate was sealed and then warmed at 37° C. for 5 min.
Two 96 shallow-well plates were placed on ice (Kill Plates). To these, 180 μL of 60:40 MeCN-H2O+0.1% acetic acid were added to required rows. The plates were sealed to minimise evaporation.
To both rows of the Run Plate, 80 μL of 10 μM compound solution was added. At the appropriate time point, 20 μL of the assay mixture was added to the matching kill plate well containing 180 μL of 60:40 cold MeCN-H2O+0.1% acetic acid. For lipoic acid analysis, samples were analysed as soon as practicable by LCMS (Waters Xevo TQ-S). For parent conjugate and parent analysis the samples were diluted further 1 in 10: 20 μL supernatant was added to 180 μL of 50:50 MeCN—H2O.
Parent conjugate, parent and keratolytic concentrations were determined against appropriate standard response curves and the half-life (T½) of the parent conjugate was calculated using the peak area or the measured concentration of the parent conjugate at each time point in the linear region of the log-linear plot.

[4] = Aqueous hydrolysis stability assay, Method 2; format: physicochemical; conditions: Method 2: DPBS pH 7.4, 37° C.
Method: (§4) Determination of aqueous stability of the test compounds was performed using HPLC-MS or UPLC-MS. A test compound 10 mM stock solution was prepared in DMSO. Half-life (T1/2) of the parent conjugate is calculated using the peak area of the parent conjugate at each time point in the linear region of the log-linear plot.
10 μL of the DMSO stock solution is dissolved in 990 μL of DPBS pH 7.4 buffer to prepare 100 μM solution. A further dilution is made by dissolving 75 μL of 100 μM stock solution into 225 μL of DPBS. Final DMSO concentration is 0.25%. The solution is kept at 37° C. and injected without delay into the LCMS (Waters Xevo XSQ-ToF). Additional injections are performed at appropriate time points.

[5] = Rabbit Cornea Homogenate stability (esterase) assay, Method 1; format: in vitro ADME; conditions: for Esterase % Lifitegrast formation at 45 min: 37° C., Method 1 (50 mM HEPES pH 7.5); for Esterase % keratolytic agent formation at 45 min / API Formation rate (%/min): Method 1
Method: as §1, §2, §3
10 mM Compound stocks were diluted to 100 μM in a 96 deep-well plate: 10 μL of 10 mM Compound stock was added to 990 μL 50 mM HEPES, pH 7.5 buffer. Compounds were further diluted to 10 μM: 100 μL of 100 μM compound was added to 900 μL 50 mM HEPES, pH 7.5 buffer. Esterase homogenate was diluted to 300 ng/μL and 900 ng/μL.
A heater shaker was set to 37° C. Into a suitable 96 well plate (Run Plate), 75 μL of 300 or 900 ng/μL esterase homogenate was pipetted into each of the required wells (2 min, 5 min, 10 min, 20 min and 45 min). The plate was sealed and then warmed at 37° C. for 5 min.
Another 96 well PCR plate was put on ice (Kill Plate). To this was added 100 μL of MeCN to each well, labelled 0 min 2 min, 5 min, 10 min, 20 min and 45 min. The plate was covered to minimize evaporation.
For the T=0 sample only, to the 100 μL cold MeCN stop solution was added 50 μL of 300 or 900 ng/μL esterase homogenate followed by 50 μL of 10 μM compound solution. For the remaining timepoints, 75 μL of 10 μM compound solution was added to the Run Plate starting from T=45 min row and ending with T=2 min row. At the appropriate time point, 100 μL of the assay mixture was added to the matching kill plate well containing 100 μL of cold MeCN. Samples were analyzed as soon as practicable by LCMS (Waters Xevo TQ-S or Micromass Ultima).
Parent conjugate and parent concentrations were determined against appropriate standard response curves and the half-life (T½) of the parent conjugate was calculated using the peak area of the parent conjugate at each time point in the linear region of the log-linear plot.

[6] = Aqueous hydrolysis stability assay, Method 1; format: physicochemical; conditions: 45 min; Method 1: 50 mM HEPES pH 7.5 or 1:1 acetonitrile:water, room temperature
Method: as §4
10 μL of the DMSO stock solution was dissolved in 990 μL of 50 mM HEPES pH 7.5 buffer or 1:1 (v/v) of acetonitrile:water to make a 100 μM solution. Final DMSO concentration was 1%. The solution was kept at room temperature and injected without delay into the LCMS (Waters Xevo TQ-S or Micromass Ultima). Additional injections were performed at appropriate time points.

[7] = system: patients with dry eye and delayed tear clearance; conditions: 0.5% ophthalmic suspension, QID, 4 weeks, 64 patients (Pflugfelder et al 2004); cited from earlier work
[8] = Cornea Homogenate Conc 0.15 mg/mL
[9] = Cornea Homogenate Conc 0.45 mg/mL

SMILES | Esterase % Lifitegrast formation at 45 min [3, 8] | API Formation rate (%/min) [3, 8] | Esterase % Lifitegrast formation at 45 min [3, 9] | API Formation rate (%/min) [3, 9] | other results
CS(=O)(=O)c1cccc(C[C@H](NC(=O)c2c(Cl)cc3c(c2Cl)CCN(C(=O)c2ccc4ccoc4c2)C3)C(=O)O)c1 [lifitegrast] | – | – | – | – | inhibition of T-cell adhesion to ICAM-1 [1]: may inhibit T-cell adhesion to ICAM-1; inhibition of secretion of inflammatory cytokines [2]: may inhibit secretion of inflammatory cytokines
CC(=O)SCC(=O)OC(C)OC(=O)[C@H](Cc1cccc(S(C)(=O)=O)c1)NC(=O)c1c(Cl)cc2c(c1Cl)CCN(C(=O)c1ccc3ccoc3c1)C2 (stereo partly shown) [Compound 31] | D (percent API formation >75%) | d (API formation rate >1.5%/min) | D (percent API formation >75%) | d (API formation rate >1.5%/min) | Hydrolytic % Lifitegrast formation at [time] ([4]; 60 min): C [60 min] (percent API formation >4%)
CC(OC(=O)CCC(=O)O)OC(=O)[C@H](Cc1cccc(S(C)(=O)=O)c1)NC(=O)c1c(Cl)cc2c(c1Cl)CCN(C(=O)c1ccc3ccoc3c1)C2 (stereo partly shown) [Compound 45] | C (percent API formation 51% to 75%) | c (API formation rate 1.0-1.5%/min) | C (percent API formation 51% to 75%) | c (API formation rate 1.0-1.5%/min) | Hydrolytic % Lifitegrast formation at [time] ([4]; 44 min): C [44 min] (percent API formation >4%)
CC(=O)N[C@@H](CS)C(=O)OC(C)OC(=O)[C@H](Cc1cccc(S(C)(=O)=O)c1)NC(=O)c1c(Cl)cc2c(c1Cl)CCN(C(=O)c1ccc3ccoc3c1)C2 (stereo partly shown) [Compound 5] | – | – | – | – | Esterase % Lifitegrast formation at 45 min [5, 8]: A (percent active pharmaceutical ingredient (API) formation <25%); Esterase % keratolytic agent formation at 45 min [5, 8]: A (percent active pharmaceutical ingredient (API) formation <25%); API Formation rate (%/min) [5, 8]: a (API formation rate <0.5%/min); Esterase % Lifitegrast formation at 45 min [5, 9]: A (percent active pharmaceutical ingredient (API) formation <25%); Esterase % keratolytic agent formation at 45 min [5, 9]: A (percent active pharmaceutical ingredient (API) formation <25%); API Formation rate (%/min) [5, 9]: a (API formation rate <0.5%/min); Hydrolytic % Lifitegrast formation at [time] [6]: C [45 min] (percent API formation >4%)
CC(OC(=O)CCC(=O)OC(C)(C)C)OC(=O)[C@H](Cc1cccc(S(C)(=O)=O)c1)NC(=O)c1c(Cl)cc2c(c1Cl)CCN(C(=O)c1ccc3ccoc3c1)C2 (stereo partly shown) [Compound 48] | B (percent API formation 25% to 50%) | b (API formation rate 0.5-1.0%/min) | C (percent API formation 51% to 75%) | c (API formation rate 1.0-1.5%/min) | –
CC(OC(=O)OCCCOC(=O)CCCC[C@@H]1CCSS1)OC(=O)[C@H](Cc1cccc(S(C)(=O)=O)c1)NC(=O)c1c(Cl)cc2c(c1Cl)CCN(C(=O)c1ccc3ccoc3c1)C2 (stereo partly shown) [Compound 47] | A (percent active pharmaceutical ingredient (API) formation <25%) | a (API formation rate <0.5%/min) | A (percent active pharmaceutical ingredient (API) formation <25%) | a (API formation rate <0.5%/min) | –
CCOC(=O)O[C@]1(C(=O)OCCl)CC[C@H]2[C@@H]3CCC4=CC(=O)C=C[C@]4(C)[C@H]3[C@@H](O)C[C@@]21C [loteprednol etabonate] | – | – | – | – | improving some signs and symptoms versus vehicle [7]: more effective than its vehicle
